Converted amounts (≈) assume the structure as drawn.

Broadly, the IC50 is the concentration that gives 50% inhibition. Read a high IC50 as weaker potency in that assay.

What all share (type): functional, cell-based
Assay [1] deals with K562. The assay can be described thus: Cytotoxicity against human K562 cells after 48 hrs by microplate assay. The following applies: K562, 48 h.
The test system of assay [2] is SK-BR-3. The experiment in a line: Cytotoxicity against human SKBR3 cells after 48 hrs by microplate assay. To be noted: SK-BR-3, 48 h.
Assay [3] relates to LX-1. The experiment in a line: Cytotoxicity against human LX1 cells after 48 hrs by microplate assay. The following applies: LX-1, 48 h.
Assay [4] has as its system A2780. The assay can be described thus: Cytotoxicity against human A2780 cells after 48 hrs by microplate assay. To be noted: A2780, 48 h.
Assay [5] has as its system HCT-116. The assay can be described thus: Cytotoxicity against human HCT116 cells after 48 hrs by microplate assay. The following applies: HCT-116, 48 h.
For assay [6], the system named is PC-3. The assay can be described thus: Cytotoxicity against human PC3 cells after 48 hrs by microplate assay. To be noted: PC-3, 48 h.
A short description of assay [7]: Cytotoxicity against human drug-resistant A2780DDP cells after 48 hrs by microplate assay.
Assay [8] is described as follows: Cytotoxicity against human drug-sensitive […] cells after 48 hrs by microplate assay.
The subject of assay [9] is HT-29. The experiment in a line: Cytotoxicity against human HT-29 cells after 48 hrs by microplate assay. To be noted: HT-29, 48 h.
The test system of assay [10] is ABAE. The assay can be described thus: Cytotoxicity against ABAE cells after 48 hrs by microplate assay. The following applies: Bos taurus.

With `C=CC(=C)CC[C@]1(C)[C@H]2C[C@H](OC(=O)C(C)CC)C=C3[C@H](OC(C)=O)O[C@H](OC(C)=O)[C@@]32[C@H](OC)C[C@@H]1C` (relative stereo), the IC50 in assay [1] came to 1.4 µg/mL (≈ 2.63 µM); in assay [2], 3.5 µg/mL (≈ 6.57 µM); in assay [3] it was 1.2 µg/mL (≈ 2.25 µM); in [4], 2.9 µg/mL (≈ 5.44 µM); in assay [5], 1 µg/mL (≈ 1.88 µM); in assay [6], 3 µg/mL (≈ 5.63 µM). The IC50 came out at 2.9 µg/mL (≈ 5.44 µM) in assay [7], 1.4 µg/mL (≈ 2.63 µM) in assay [8], 1.3 µg/mL (≈ 2.44 µM) in assay [9] and 0.8 µg/mL (≈ 1.5 µM) in assay [10].

`C=CC(=C)CC[C@]1(C)[C@H]2C[C@H](OC(=O)C(C)CC)C=C3[C@H](OC(C)=O)O[C@H](OC(C)=O)[C@@]32[C@H](O)C[C@@H]1C` (relative stereo): the IC50 amounted to 1.4 µg/mL (≈ 2.7 µM) in [1]; 1.4 µg/mL (≈ 2.7 µM) in assay [2]; 1.1 µg/mL (≈ 2.12 µM) in assay [3]; 2.9 µg/mL (≈ 5.59 µM) in assay [4]; 1.6 µg/mL (≈ 3.08 µM) in [5]; 2.8 µg/mL (≈ 5.4 µM) in [6]. Moreover, the half-maximal inhibitory concentration (IC50) in assay [7] stood at 2.1 µg/mL (≈ 4.05 µM); in assay [8], 1.2 µg/mL (≈ 2.31 µM); in [9] it was 1 µg/mL (≈ 1.93 µM); in [10] it was 0.8 µg/mL (≈ 1.54 µM).

On to `C=C/C(C)=C/C[C@]1(C)[C@H]2C[C@H](OC(=O)C(C)CC)C=C3[C@H](OC(C)=O)O[C@H](OC(C)=O)[C@@]32[C@H](O)C[C@@H]1C` (relative stereo) [CASEARLUCIN A], for which the IC50 in assay [1] was 1.1 µg/mL (≈ 2.12 µM); in assay [2], 1.2 µg/mL (≈ 2.31 µM); in assay [3], 1 µg/mL (≈ 1.93 µM); in [4] it was 3 µg/mL (≈ 5.78 µM); in [5] it was 1.3 µg/mL (≈ 2.51 µM); in assay [6] it was 2.5 µg/mL (≈ 4.82 µM). The IC50 in assay [7] amounted to 2.8 µg/mL (≈ 5.4 µM); in [8], 1 µg/mL (≈ 1.93 µM); in [9] it was 0.8 µg/mL (≈ 1.54 µM); in [10] it was 0.8 µg/mL (≈ 1.54 µM).

Regarding `C=C/C(C)=C/C[C@]1(C)[C@H]2C[C@H](OC(=O)C(C)CC)C=C3[C@H](OC(C)=O)O[C@H](OC(C)=O)[C@@]32[C@H](OC(C)=O)C[C@@H]1C` (relative stereo) [CASEARLUCIN C], the IC50 in assay [1] worked out at 3.8 µg/mL (≈ 6.78 µM); in assay [2], 14 µg/mL (≈ 25 µM); in assay [3] it was 5 µg/mL (≈ 8.92 µM); in assay [4], 2.8 µg/mL (≈ 4.99 µM); in [5], 4.5 µg/mL (≈ 8.03 µM); in assay [6] it was 15 µg/mL (≈ 26.8 µM). Also, the IC50 in assay [7] worked out at 9.6 µg/mL (≈ 17.1 µM); in assay [8] it was 7.7 µg/mL (≈ 13.7 µM); in assay [9], 12 µg/mL (≈ 21.4 µM); in [10], 3.6 µg/mL (≈ 6.42 µM).

As for `C=CC(=C)CC[C@]1(C)[C@H]2C[C@H](OC(=O)C(C)CC)C=C3[C@H](OC(C)=O)O[C@H](OC(C)=O)[C@@]32[C@H](OC(C)=O)C[C@@H]1C` (relative stereo) [CASEARLUCIN D], the IC50 in assay [1] stood at 3.9 µg/mL (≈ 6.96 µM); in assay [2] it was 10 µg/mL (≈ 17.8 µM); in assay [3], 3.9 µg/mL (≈ 6.96 µM); in assay [4], 2.9 µg/mL (≈ 5.17 µM); in assay [5] it was 4.7 µg/mL (≈ 8.38 µM); in assay [6], 13 µg/mL (≈ 23.2 µM). In addition, the IC50 in assay [7] is 4.6 µg/mL (≈ 8.2 µM); in assay [8], 9.4 µg/mL (≈ 16.8 µM); in assay [9], 6.2 µg/mL (≈ 11.1 µM); in [10], 4.1 µg/mL (≈ 7.31 µM).

For `C=CC(=C)CC[C@]1(C)[C@H]2C[C@@H](OC(=O)C(C)CC)C=C3[C@H](OC(C)=O)O[C@H](OC(C)=O)[C@@]32[C@H](OC)C[C@@H]1C` (relative stereo) [CASEARLUCIN E], the IC50 in assay [1] is 1.7 µg/mL (≈ 3.19 µM); in assay [2] it was 3.9 µg/mL (≈ 7.32 µM); in assay [3], 1.8 µg/mL (≈ 3.38 µM); in assay [4], 2.9 µg/mL (≈ 5.44 µM); in [5], 1.8 µg/mL (≈ 3.38 µM); in assay [6] it was 4.3 µg/mL (≈ 8.07 µM). Further, the IC50 is 4.1 µg/mL (≈ 7.7 µM) in assay [7], 3 µg/mL (≈ 5.63 µM) in assay [8], 2.8 µg/mL (≈ 5.26 µM) in assay [9] and 0.9 µg/mL (≈ 1.69 µM) in [10].

(Values after ChEMBL document CHEMBL1159313, “Structure and stereochemistry of new cytotoxic clerodane diterpenoids from the bark of Casearia lucida from the Madagascar rainforest” (J Nat Prod, 2002).)
